Here are results for seven compounds from patent publication US20240182449A1, “CRYSTALLINE FORMS OF AN MK2 INHIBITOR” (XinThera, Inc., priority 2022, published 2024).

SMILES strings stand for the structures.

Series [1] in a line: Salt screening with strong acids (chemical stability, HPLC purity). Type of series: physicochemical. Here is the method: A salt screening was conducted with 6 pharmaceutically acceptable strong acids. About 25 mg of compound 1 was weighed into a 1.5-mL glass vial, then 1.1 eq. of selected acid was weighted into the above glass vial. Liquid strong acid was pre-diluted in corresponding solvent. After addition of 0.5 mL solvent, the mixture was stirred at RT for 24 h. 0.5 mL more solvent was added to dilute several viscous systems at 4 h (highlighted as * in the summary table). If no solid was obtained, anti-solvent of heptane was added into the filtrates gradually at RT to induce precipitation (highlighted as ** in the summary table). The suspensions were filtered and the solids were vacuum dried at 40° C. for 4 h.
HPLC results (Table 33) confirmed significant purity decrease by>15%.

Series [2] can be described thus: Slurry competition experiments (thermodynamic stability relationship). Type of series: physicochemical. The note with it: RT. How it is done: Slurry competition experiments were carried out between anhydrous and hydrates, to establish stability relationships. Appropriate amount of Form I was suspended in different solvents for pre-saturation at RT. Then the filtrate was added into equal amount of different forms, and the mixture was kept stirring at RT for certain time before XRPD tests.

Series [3] can be described thus: Slurry conversion of Form I and Form X in solvents (XRPD result). The note with it: slurry at RT, Toluene. Type of series: physicochemical.
Test in series [4]: as above
The note with it: for XRPD Result-Day 3: slurry at 80° C. The format is physicochemical. Here is the method:
Appropriate amount of Form I was added into different solvents to make suspensions, which were kept stirring at RT and 50° C. for 3 and 7 days, and at 80° C. for 3 days. Solid samples were collected by centrifugation and analyzed by XRPD. Forms I-IV, VII and VIII were obtained by slurry experiments of Form I.
Appropriate amount of Form X was added into different solvents to make suspensions, which were kept stirring at RT and 50° C. for 3 and 7 days, and at 80° C. for 3 days. Solid samples were collected by centrifugation and analyzed by XRPD.

Series [5] in a line: Solubility estimation at RT by visual observation in selected solvent systems. The note with it: RT. How it is done: The solubility of compound 1 Form I and Form X was estimated at RT by visual observation in selected solvent systems. Approximately 5 mg solids were weighed into 8 mL glass vial, and then solvent was added stepwise until solids were dissolved completely or a total of solvent volume reached 5 mL.

[6] abbreviates: slurry at 50° C., 2-MeTHF/CYH (1/4).
[7] abbreviates: slurry at 50° C., ACN/water (1/9).
[8] abbreviates: slurry at 50° C., Acetone/water (1/4).
Setting [9] is: slurry at 50° C., IPAc/heptane (1/4).
Where [10] appears, read: slurry at 50° C., IPE/water (200/1).
The mark [11] stands for this setting: slurry at 50° C., Toluene/heptane (1/4).
The mark [12] stands for this setting: slurry at RT, Acetone/water (1/4).
Where [13] appears, read: slurry at RT, IPAc/heptane (1/4).
Setting [14] is: slurry at RT, IPE/water (200/1).
Setting [15] is: slurry at RT, Toluene/heptane (1/4).

In the case of `[2H]C([2H])(Oc1cc(C)n(-c2c(C)cnc(-n3ccc(C(C)(C)O)n3)c2F)c(=O)c1Cl)c1ncc(F)cc1F` (atropisomer, axis not shown; (M)) [compound 1, (M)-3-chloro-4-((3,5-difluoropyridin-2-yl)methoxy-d2)-3′-fluoro-2′-(3-(2-hydroxypropan-2-yl)-1H-pyrazol-1-yl)-5′,6-dimethyl-2H-[1,4′-bipyridin]-2-one], the “chemical stability under strong acidic conditions” value in series [1] (salt screening with 6 strong acids) was “chemically unstable”.

With `[2H]C([2H])(Oc1cc(C)n(-c2c(C)cnc(-n3ccc(C(C)(C)O)n3)c2F)c(=O)c1Cl)c1ncc(F)cc1F` [Form I + IV], the “Output of competitive slurry (XRPD)” value in series [2] (Water, 3 d) is recorded as “Form IV”; in series [2] (Water/MeOH (9/1), 3 d), “Form IV + IX”; in series [2] (Water/MeOH (19/1), 3 d) it was “Form IV + IX”.

Consider `[2H]C([2H])(Oc1cc(C)n(-c2c(C)cnc(-n3ccc(C(C)(C)O)n3)c2F)c(=O)c1Cl)c1ncc(F)cc1F` [Form I, starting material], for which the “Purity (area %)” value in series [1] (salt screening samples, HPLC, chemical stability under strong acid) amounted to 99.29 area %.

With `[2H]C([2H])(Oc1cc(C)n(-c2c(C)cnc(-n3ccc(C(C)(C)O)n3)c2F)c(=O)c1Cl)c1ncc(F)cc1F` [Form IV + IX], the “Output of competitive slurry (XRPD)” value in series [2] (Water, 3 d) is given as “Form X + IV (trace)”; in series [2] (Water/MeOH (9/1), 3 d), “Form X + IV”; in series [2] (Water/MeOH (17/3), 3 d), “Form X”; in series [2] (Water/MeOH (19/1), 3 d), “Form X”.

Take `[2H]C([2H])(Oc1cc(C)n(-c2c(C)cnc(-n3ccc(C(C)(C)O)n3)c2F)c(=O)c1Cl)c1ncc(F)cc1F` [Form IV + X]: in series [2] (Water, 2 d), the “Output of competitive slurry (XRPD)” value is on record as “Form X”.

With `[2H]C([2H])(Oc1cc(C)n(-c2c(C)cnc(-n3ccc(C(C)(C)O)n3)c2F)c(=O)c1Cl)c1ncc(F)cc1F` [Form I], in series [3], the “XRPD Result (6 d)” value is on record as “Form IV (6 d)”. Besides, the “XRPD Result Day 3” value is “Form VII” in series [4] (setting [6]); “Form IV” in series [4] (setting [7]); “Form IV” in series [4] (setting [8]); “Form IV” in series [4] (slurry at 50° C., CYH); “Form IV” in series [4] (slurry at 50° C., Heptane); “Form IV + VIII” in series [4] (setting [9]). Further, the “XRPD Result Day 3” value is on record as “Form IV” in series [4] (slurry at 50° C., IPE); “Form IV” in series [4] (setting [10]); “Form III” in series [4] (slurry at 50° C., MTBE); “Form IV” in series [4] (slurry at 50° C., MeCYH); “Clear” in series [4] (slurry at 50° C., Toluene); “Form IV” in series [4] (setting [11]). Further, the “XRPD Result Day 3” value is listed as “Form IV” in series [4] (slurry at 50° C., Water); “Form IV” in series [4] (slurry at RT, ACN/water (1/9)); “Form VII” in series [4] (setting [12]); “Form I” in series [4] (slurry at RT, CYH); “Form I” in series [4] (slurry at RT, Heptane); “Form IV” in series [4] (setting [13]). Also, the “XRPD Result Day 3” value in series [4] (setting [14]) is on record as “Form IV”; in series [4] (slurry at RT, MTBE) it was “Form III”; in series [4] (slurry at RT, MeCYH) it was “Form I”; in series [4] (slurry at RT, Toluene), “Gel-like on the wall”; in series [4] (setting [15]), “Form IV”; in series [4] (slurry at RT, Water) it was “Form I”. Besides, the “XRPD Result Day 7” value in series [4] (setting [6]) is given as “Form III”; in series [4] (setting [7]), “Form IV”; in series [4] (setting [8]), “Form IV”; in series [4] (slurry at 50° C., CYH), “Form IV”; in series [4] (slurry at 50° C., Heptane), “Form IV”; in series [4] (setting [9]), “Form IV + VIII”. In addition, the “XRPD Result Day 7” value is on record as “Form IV + VIII” in series [4] (slurry at 50° C., IPE); “Form IV” in series [4] (setting [10]); “Form III” in series [4] (slurry at 50° C., MTBE); “Form IV” in series [4] (slurry at 50° C., MeCYH); “Clear” in series [4] (slurry at 50° C., Toluene); “Form IV” in series [4] (setting [11]). The “XRPD Result Day 7” value is “Form IV” in series [4] (slurry at 50° C., Water); “Form IV” in series [4] (slurry at RT, ACN/water (1/9)); “Form VII” in series [4] (setting [12]); “Form I” in series [4] (slurry at RT, CYH); “Form I” in series [4] (slurry at RT, Heptane); “Form IV” in series [4] (setting [13]). The “XRPD Result Day 7” value was “Form IV” in series [4] (setting [14]); “Form III” in series [4] (slurry at RT, MTBE); “Form I” in series [4] (slurry at RT, MeCYH); “Gel-like on the wall” in series [4] (slurry at RT, Toluene); “Form IV” in series [4] (setting [15]); “Form I” in series [4] (slurry at RT, Water). Also, the “XRPD Result-Day 3” value in series [4] (CYH) is “Form VIII”; in series [4] (Heptane) it was “Form VIII”; in series [4] (MeCYH), “Form VIII”; in series [4] (Water), “Form IV”. Besides, the “Estimated Solubility” value was below 1000 µg/mL in series [5] (CYH); below 1000 µg/mL in series [5] (Heptane); below 1000 µg/mL in series [5] (IPE); below 1000 µg/mL in series [5] (Water); above 100000 µg/mL in series [5] (visual observation, most tested solvents).

As for `[2H]C([2H])(Oc1cc(C)n(-c2c(C)cnc(-n3ccc(C(C)(C)O)n3)c2F)c(=O)c1Cl)c1ncc(F)cc1F` [Form VIII], the “Output of competitive slurry (XRPD)” value in series [2] (Water, 1 d) is recorded as “Form I”.
